From the supplement of paper PMC10307832

Key:
Assay in all cases: relative viability (nuclei count vs DMSO), 5 days (fraction); higher = more cells survive
GSK-J4 + Phenformin = compound: CCOC(=O)CCNc1cc(N2CCc3ccccc3CC2)nc(-c2ccccn2)n1 [GSK-J4] + N=C(N)NC(=N)NCCc1ccccc1 [Phenformin] (partner 250 µM)
How it was run: (§1)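 One day after seeding in 1536-well plates, lung cancer cell lines were dosed by pin tool. Dosing was either single-drug or a fixed anchor-drug dose plus five library-drug doses (not always all listed) in √10 steps. After 5 days, nuclei were stained in one fix-and-stain step and counted on 4× images, and relative viability is the nuclei count of treated wells over that of vehicle wells, given as the median of duplicate plates.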

AZ3146 + Palbociclib = compound: CN1CCC(CC1)OC2=CC(=C(C=C2)NC3=NC=C4C(=N3)N(C(=O)N4C)C5CCCC5)OC [AZ3146] + CC(=O)c1c(C)c2cnc(Nc3ccc(N4CCNCC4)cn3)nc2n(C2CCCC2)c1=O [Palbociclib] (partner 0.5 µM)
How it was run: as §1

AZ3146 + OSI-027 = compound: CN1CCC(CC1)OC2=CC(=C(C=C2)NC3=NC=C4C(=N3)N(C(=O)N4C)C5CCCC5)OC [AZ3146] + COc1cccc2cc(-c3nc([C@H]4CC[C@H](C(=O)O)CC4)n4ncnc(N)c34)[nH]c12 [OSI-027] (partner 0.5 µM)
How it was run: as §1

AZ3146 + Luminespib = compound: CN1CCC(CC1)OC2=CC(=C(C=C2)NC3=NC=C4C(=N3)N(C(=O)N4C)C5CCCC5)OC [AZ3146] + CCNC(=O)c1noc(-c2cc(C(C)C)c(O)cc2O)c1-c1ccc(CN2CCOCC2)cc1 [Luminespib] (partner 0.01 µM)
How it was run: as §1

Cell Line: UMC-11
- relative viability (GSK-J4 + Phenformin; first compound 0.5 µM): 0.276
- relative viability (GSK-J4 + Phenformin; first compound 5 µM): 0.241
- relative viability (GSK-J4 + Phenformin; first compound 15.81 µM): 0.306
- relative viability (GSK-J4 + Phenformin; first compound 50 µM): 0.294
- relative viability (AZ3146 + Palbociclib; first compound 0.08 µM): 0.267
- relative viability (AZ3146 + Palbociclib; first compound 0.253 µM): 0.342
- relative viability (AZ3146 + Palbociclib; first compound 0.8 µM): 0.335
- relative viability (AZ3146 + Palbociclib; first compound 2.53 µM): 0.303
- relative viability (AZ3146 + Palbociclib; first compound 8 µM): 0.306
- relative viability (AZ3146 + OSI-027; first compound 0.08 µM): 0.462
- relative viability (AZ3146 + OSI-027; first compound 0.253 µM): 0.46
- relative viability (AZ3146 + OSI-027; first compound 0.8 µM): 0.425
- relative viability (AZ3146 + OSI-027; first compound 2.53 µM): 0.475
- relative viability (AZ3146 + OSI-027; first compound 8 µM): 0.314
- relative viability (AZ3146 + Luminespib; first compound 0.08 µM): 0.959
- relative viability (AZ3146 + Luminespib; first compound 0.253 µM): 1.2
- relative viability (AZ3146 + Luminespib; first compound 0.8 µM): 1.09
- relative viability (AZ3146 + Luminespib; first compound 2.53 µM): 0.86
- relative viability (AZ3146 + Luminespib; first compound 8 µM): 0.256
